In patent publication US11795152B2, “Crystal form of tafamidis and preparation method therefor and use thereof” (CRYSTAL PHARMACEUTICAL (SUZHOU) CO., LTD., priority 2019, dated 2023):

Experiments:
Type in all cases: physicochemical
[1] = Hygroscopicity by dynamic vapor sorption (DVS); settings: 80% RH, 25° C., DVS
Procedure: Dynamic Vapor Sorption (DVS) is measured via a SMS (Surface Measurement Systems Ltd.) intrinsic DVS instrument. Its control software is DVS-Intrinsic control software. Typical parameters for DVS tests are as follows:
Gas and flow rate: N2, 200 mL/min
RH range: 0% RH to 95% RH
The weight gains at each relative humidity were recorded in a cycle of 0-95%-0 RH. The XRPD patterns were collected before and after the DVS test and depicted in FIG. 11.
Description and definition of hygroscopicity (general notice 9103 drug hygroscopicity test guidelines in 2015 edition of Chinese Pharmacopoeia, test at 25° C.+/−1° C., 80% RH. The definition of hygroscopicity in the 9th European Pharmacopoeia 5.11 is in consistent with the Chinese Pharmacopoeia.). • deliquescent: sufficient water is absorbed to form a solution. • very hygroscopic: increase in mass is equal to or greater than 15 percent. • hygroscopic: increase in mass is less than 15 percent and equal to or greater than 2 percent. • slightly hygroscopic: increase in mass is less than 2 percent and equal to or greater than 0.2 percent. • non hygroscopic or almost non hygroscopic: Increase in mass is less than 0.2%.
The weight gains at each relative humidity were recorded in a cycle of 0-95%-0RH. The XRPD patterns were collected before and after the DVS test and depicted in FIG. 22. […] Form CSVI is slightly hygroscopic.
The weight gains at each relative humidity were recorded in a cycle of 0-95%-0RH. The XRPD patterns were collected before and after the DVS test and depicted in FIG. 31.

[2] = Dissolution profile of tablets in pH6.8 PBS+1% Tween 80; settings: tablet 61 mg, paddle 75 rpm, 37° C.
Procedure: The cumulative dissolution was measured at different time in pH6.8 PBS+1% Tween 80 and pH6.8 PBS+3% Tween 80. The dissolution results are presented in Table 24 (FIG. 23) and Table 25 (FIG. 24).
The cumulative dissolution was measured at different time in pH6.8 PBS+1% Tween 80.

[3] = Stability of drug substance on storage (XRPD, HPLC purity); settings: for chemical purity during storage: drug substance
Text: Crystalline form and chemical impurity were checked by XRPD and HPLC, respectively.
Crystalline form and purity were checked by XRPD and HPLC, respectively.

[4] = Adhesiveness (material sticking to the punch); settings: 30 mg, φ8 mm round tooling, 10 KN held for 30 s
Procedure: The punch was weighed and amount of material sticking to the punch was calculated. The compression was repeated twice and the cumulative amount, maximum amount and average amount of material sticking to the punch during the compression were recorded.

[5] = Stability of Form CSVII drug product on storage; settings: 30° C./60% RH
[6] = Compressibility (manual tablet press, tensile strength); settings: 80 mg, φ6 mm round tooling, 10 KN
Procedure: An ENERPAC manual tablet press was used for tableting. […] Diameter (D) and thickness (L) were tested with a caliper. Hardness (H) was tested with an intelligent tablet hardness tester. Tensile strength of the powder was calculated with the following formula: T=2H/πDL*9.8. Under a certain force, the greater the tensile strength, the better the compressibility.
Diameter (D) and thickness (L) were tested with a caliper. Hardness (H) was tested with an intelligent tablet hardness tester. Tensile strength of the powder was calculated with the following formula: T=2H/πDL*9.8. Under a certain force, the greater the tensile strength, the better the compressibility.

[7] = 40° C./75% RH, Sealed, 3 months
[8] = 60° C./75% RH, Sealed, 2 months

O=C(O)CCCCC(=O)O.O=C(O)c1ccc2nc(-c3cc(Cl)cc(Cl)c3)oc2c1.O=C(O)c1ccc2nc(-c3cc(Cl)cc(Cl)c3)oc2c1 [Form CSVII]
Weight gain [1]: 0.04% | Cumulative drug release in pH 6.8 PBS + 1% Tween 80 (%) ([2]; 0 min): 0.0% | Cumulative drug release in pH 6.8 PBS + 1% Tween 80 (%) ([2]; 5 min): 9.3% | Cumulative drug release in pH 6.8 PBS + 1% Tween 80 (%) ([2]; 10 min): 15.2% | Cumulative drug release in pH 6.8 PBS + 1% Tween 80 (%) ([2]; 15 min): 19.7% | Cumulative drug release in pH 6.8 PBS + 1% Tween 80 (%) ([2]; 20 min): 23.5% | Cumulative drug release in pH 6.8 PBS + 1% Tween 80 (%) ([2]; 30 min): 29.8% | Cumulative drug release in pH 6.8 PBS + 1% Tween 80 (%) ([2]; 45 min): 37.4% | Cumulative drug release in pH 6.8 PBS + 1% Tween 80 (%) ([2]; 60 min): 43.7% | Cumulative drug release in pH 6.8 PBS + 1% Tween 80 (%) ([2]; 90 min): 52.8% | Cumulative drug release in pH 6.8 PBS + 1% Tween 80 (%) ([2]; 120 min): 60.1% | Cumulative drug release in pH 6.8 PBS + 1% Tween 80 (%) ([2]; 150 min): 68.3% | Purity ([3]; 25° C./60% RH, Open, 3 months): 99.92% | Solid Form ([3]; 25° C./60% RH, Open, 3 months): Form CSVII | Purity ([3]; 40° C./75% RH, Open, 3 months): 99.92% | Solid Form ([3]; 40° C./75% RH, Open, 3 months): Form CSVII | Purity [3, 7]: 99.92% | Solid Form [3, 7]: Form CSVII | Purity [3, 8]: 99.93% | Solid Form [3, 8]: Form CSVII | Purity ([3]; Initial): 99.93% | Solid Form ([3]; Initial): Form CSVII | chemical purity during storage ([3]; 25° C./60% RH): above 99.9% | chemical purity during storage ([3]; 40° C./75% RH and 60° C./75% RH): above 99.9% | Average amount (mg) of material sticking to the punch [4]: 0.200 mg | time for which crystalline state of drug product doesn't change [5]: at least three months | Hardness ([6]; 24 hours recovery): 7.45 kgf | Tensile strength ([6]; T=2H/πDL*9.8): 4.02 MPa
